In patent US10670605B2, “Cysteine reactive probes and uses thereof” (The Scripps Research Institute, priority 2015, dated 2020):

How the values were obtained:
[1] = target: cysteines in MDA-MB-231 and Ramos cells (Homo sapiens, UniProt P27707); assay: Competitive isoTOP-ABPP in situ (fragment-treated cells); format: cell-based; settings: 200 μM, insitu, 231
[2] = target: cysteines in MDA-MB-231 and Ramos cells (Homo sapiens, UniProt P52948); assay: as above; format: cell-based; settings: 200 μM, insitu, 231
[3] = target: cysteines in MDA-MB-231 and Ramos cells (Homo sapiens, UniProt P68366); assay: as above; format: cell-based; settings: 200 μM, insitu, 231
[4] = target: cysteines in MDA-MB-231 and Ramos cells (Homo sapiens, UniProt Q14790); assay: as above; format: cell-based; settings: 200 μM, insitu, 231
[5] = target: T1, cysteines in MDA-MB-231 and Ramos cells (Homo sapiens, UniProt Q96EB1); assay: as above; format: cell-based; settings: 200 μM, insitu, 231
T1 sequence (Q96EB1 1-424): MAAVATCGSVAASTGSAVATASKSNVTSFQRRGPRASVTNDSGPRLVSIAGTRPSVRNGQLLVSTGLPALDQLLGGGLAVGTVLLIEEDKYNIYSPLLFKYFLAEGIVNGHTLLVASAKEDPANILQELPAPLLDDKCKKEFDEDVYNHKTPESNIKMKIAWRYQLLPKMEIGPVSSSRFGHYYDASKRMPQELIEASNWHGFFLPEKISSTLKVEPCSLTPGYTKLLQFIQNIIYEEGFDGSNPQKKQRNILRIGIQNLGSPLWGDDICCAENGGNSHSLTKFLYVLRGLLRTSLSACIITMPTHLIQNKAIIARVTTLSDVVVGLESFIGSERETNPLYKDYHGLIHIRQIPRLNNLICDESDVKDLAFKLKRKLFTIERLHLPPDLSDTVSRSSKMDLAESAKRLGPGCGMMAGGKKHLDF

[6] = target: T2, cysteines in MDA-MB-231 and Ramos cells (Homo sapiens, UniProt Q9Y5Y2); assay: as above; format: cell-based; settings: 200 μM, insitu, 231
T2 sequence (Q9Y5Y2 1-271): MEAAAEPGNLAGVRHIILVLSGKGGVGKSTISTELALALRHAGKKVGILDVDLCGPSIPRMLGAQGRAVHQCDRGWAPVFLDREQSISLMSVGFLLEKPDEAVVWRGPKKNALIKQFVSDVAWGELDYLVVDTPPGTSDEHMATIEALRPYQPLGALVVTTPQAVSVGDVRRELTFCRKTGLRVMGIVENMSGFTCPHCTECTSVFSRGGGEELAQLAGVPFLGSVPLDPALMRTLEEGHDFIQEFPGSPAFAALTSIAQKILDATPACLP

[7] = target: T3, O00541_C272 (Homo sapiens, UniProt O00541); assay: Competitive isoTOP-ABPP, cell lysates; format: binding; settings: 500 μm
[8] = target: T4, cysteines in MDA-MB-231 and Ramos cells (Homo sapiens, UniProt O75439); assay: Competitive isoTOP-ABPP in situ (fragment-treated cells); format: cell-based; settings: 200 μM, insitu, 231
T4 sequence (O75439 44-489): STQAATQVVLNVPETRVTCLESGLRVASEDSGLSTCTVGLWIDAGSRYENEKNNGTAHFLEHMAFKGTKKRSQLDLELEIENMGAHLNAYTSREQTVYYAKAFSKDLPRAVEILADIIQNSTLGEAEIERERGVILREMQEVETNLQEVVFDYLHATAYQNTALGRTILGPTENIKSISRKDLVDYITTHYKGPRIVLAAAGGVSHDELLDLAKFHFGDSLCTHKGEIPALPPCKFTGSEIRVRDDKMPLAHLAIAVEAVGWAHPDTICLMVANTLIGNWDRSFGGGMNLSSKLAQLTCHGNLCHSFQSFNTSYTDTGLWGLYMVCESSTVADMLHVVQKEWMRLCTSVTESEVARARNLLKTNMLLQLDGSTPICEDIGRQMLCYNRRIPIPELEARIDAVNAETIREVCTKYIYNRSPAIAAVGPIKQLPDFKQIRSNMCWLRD

[9] = target: T5, cysteines in MDA-MB-231 and Ramos cells (Homo sapiens, UniProt P24468); assay: as above; format: cell-based; settings: 200 μM, insitu, 231
T5 sequence (P24468 1-414): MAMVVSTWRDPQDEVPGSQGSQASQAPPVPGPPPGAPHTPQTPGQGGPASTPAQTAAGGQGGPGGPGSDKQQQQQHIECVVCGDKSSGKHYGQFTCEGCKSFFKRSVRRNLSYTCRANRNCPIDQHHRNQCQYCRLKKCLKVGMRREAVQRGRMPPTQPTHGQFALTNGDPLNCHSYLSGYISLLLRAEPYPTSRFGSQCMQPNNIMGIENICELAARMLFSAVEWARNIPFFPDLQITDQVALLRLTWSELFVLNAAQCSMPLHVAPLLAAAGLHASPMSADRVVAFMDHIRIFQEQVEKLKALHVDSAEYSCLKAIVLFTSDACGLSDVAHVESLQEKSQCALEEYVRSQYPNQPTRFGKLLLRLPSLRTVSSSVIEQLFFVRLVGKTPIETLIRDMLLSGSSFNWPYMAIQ

[10] = target: cysteines in MDA-MB-231 and Ramos cells (Homo sapiens, UniProt Q14137); assay: as above; format: cell-based; settings: 200 μM, insitu, 231
[11] = target: T6, cysteines in MDA-MB-231 and Ramos cells (Homo sapiens, UniProt Q9NPH0); assay: as above; format: cell-based; settings: 200 μM, insitu, 231
T6 sequence (Q9NPH0 33-428): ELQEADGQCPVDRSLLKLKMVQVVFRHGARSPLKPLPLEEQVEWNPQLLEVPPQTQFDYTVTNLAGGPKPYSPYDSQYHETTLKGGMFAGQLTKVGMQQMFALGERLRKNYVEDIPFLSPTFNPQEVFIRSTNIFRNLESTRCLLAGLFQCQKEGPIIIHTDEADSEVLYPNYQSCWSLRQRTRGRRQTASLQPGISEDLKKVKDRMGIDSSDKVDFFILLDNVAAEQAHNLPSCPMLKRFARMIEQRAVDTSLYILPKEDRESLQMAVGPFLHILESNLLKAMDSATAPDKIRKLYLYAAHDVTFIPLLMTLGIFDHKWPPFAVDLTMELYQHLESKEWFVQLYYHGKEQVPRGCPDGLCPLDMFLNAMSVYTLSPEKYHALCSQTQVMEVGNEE

[12] = target: cysteines in MDA-MB-231 and Ramos cells (Homo sapiens, UniProt Q9UJW0); assay: as above; format: cell-based; settings: 200 μM, insitu, 231
[13] = target: T3, O00541_C272; assay: Competitive isoTOP-ABPP, cell lysates; format: binding; settings: 500 μm in-vitro ramos_231

T3 sequence (O00541 whole entry, looked up, the tested form may be a part): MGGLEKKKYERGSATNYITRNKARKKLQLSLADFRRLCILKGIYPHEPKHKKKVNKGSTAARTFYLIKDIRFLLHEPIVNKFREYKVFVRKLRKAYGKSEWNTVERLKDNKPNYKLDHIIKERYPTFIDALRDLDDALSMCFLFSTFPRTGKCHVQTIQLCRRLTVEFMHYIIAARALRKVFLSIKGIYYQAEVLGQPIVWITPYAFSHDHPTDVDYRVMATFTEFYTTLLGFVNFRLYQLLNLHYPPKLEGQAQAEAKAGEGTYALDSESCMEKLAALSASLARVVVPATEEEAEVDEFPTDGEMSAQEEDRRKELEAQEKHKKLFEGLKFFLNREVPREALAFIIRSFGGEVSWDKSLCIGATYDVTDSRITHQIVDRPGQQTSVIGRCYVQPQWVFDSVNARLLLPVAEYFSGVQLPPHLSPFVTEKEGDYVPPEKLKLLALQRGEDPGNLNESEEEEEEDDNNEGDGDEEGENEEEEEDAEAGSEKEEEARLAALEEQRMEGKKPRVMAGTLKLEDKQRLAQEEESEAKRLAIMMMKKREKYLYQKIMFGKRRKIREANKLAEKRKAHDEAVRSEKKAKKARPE
Sequence of cysteines in MDA-MB-231 and Ramos cells (Homo sapiens, UniProt P52948) (P52948 whole entry): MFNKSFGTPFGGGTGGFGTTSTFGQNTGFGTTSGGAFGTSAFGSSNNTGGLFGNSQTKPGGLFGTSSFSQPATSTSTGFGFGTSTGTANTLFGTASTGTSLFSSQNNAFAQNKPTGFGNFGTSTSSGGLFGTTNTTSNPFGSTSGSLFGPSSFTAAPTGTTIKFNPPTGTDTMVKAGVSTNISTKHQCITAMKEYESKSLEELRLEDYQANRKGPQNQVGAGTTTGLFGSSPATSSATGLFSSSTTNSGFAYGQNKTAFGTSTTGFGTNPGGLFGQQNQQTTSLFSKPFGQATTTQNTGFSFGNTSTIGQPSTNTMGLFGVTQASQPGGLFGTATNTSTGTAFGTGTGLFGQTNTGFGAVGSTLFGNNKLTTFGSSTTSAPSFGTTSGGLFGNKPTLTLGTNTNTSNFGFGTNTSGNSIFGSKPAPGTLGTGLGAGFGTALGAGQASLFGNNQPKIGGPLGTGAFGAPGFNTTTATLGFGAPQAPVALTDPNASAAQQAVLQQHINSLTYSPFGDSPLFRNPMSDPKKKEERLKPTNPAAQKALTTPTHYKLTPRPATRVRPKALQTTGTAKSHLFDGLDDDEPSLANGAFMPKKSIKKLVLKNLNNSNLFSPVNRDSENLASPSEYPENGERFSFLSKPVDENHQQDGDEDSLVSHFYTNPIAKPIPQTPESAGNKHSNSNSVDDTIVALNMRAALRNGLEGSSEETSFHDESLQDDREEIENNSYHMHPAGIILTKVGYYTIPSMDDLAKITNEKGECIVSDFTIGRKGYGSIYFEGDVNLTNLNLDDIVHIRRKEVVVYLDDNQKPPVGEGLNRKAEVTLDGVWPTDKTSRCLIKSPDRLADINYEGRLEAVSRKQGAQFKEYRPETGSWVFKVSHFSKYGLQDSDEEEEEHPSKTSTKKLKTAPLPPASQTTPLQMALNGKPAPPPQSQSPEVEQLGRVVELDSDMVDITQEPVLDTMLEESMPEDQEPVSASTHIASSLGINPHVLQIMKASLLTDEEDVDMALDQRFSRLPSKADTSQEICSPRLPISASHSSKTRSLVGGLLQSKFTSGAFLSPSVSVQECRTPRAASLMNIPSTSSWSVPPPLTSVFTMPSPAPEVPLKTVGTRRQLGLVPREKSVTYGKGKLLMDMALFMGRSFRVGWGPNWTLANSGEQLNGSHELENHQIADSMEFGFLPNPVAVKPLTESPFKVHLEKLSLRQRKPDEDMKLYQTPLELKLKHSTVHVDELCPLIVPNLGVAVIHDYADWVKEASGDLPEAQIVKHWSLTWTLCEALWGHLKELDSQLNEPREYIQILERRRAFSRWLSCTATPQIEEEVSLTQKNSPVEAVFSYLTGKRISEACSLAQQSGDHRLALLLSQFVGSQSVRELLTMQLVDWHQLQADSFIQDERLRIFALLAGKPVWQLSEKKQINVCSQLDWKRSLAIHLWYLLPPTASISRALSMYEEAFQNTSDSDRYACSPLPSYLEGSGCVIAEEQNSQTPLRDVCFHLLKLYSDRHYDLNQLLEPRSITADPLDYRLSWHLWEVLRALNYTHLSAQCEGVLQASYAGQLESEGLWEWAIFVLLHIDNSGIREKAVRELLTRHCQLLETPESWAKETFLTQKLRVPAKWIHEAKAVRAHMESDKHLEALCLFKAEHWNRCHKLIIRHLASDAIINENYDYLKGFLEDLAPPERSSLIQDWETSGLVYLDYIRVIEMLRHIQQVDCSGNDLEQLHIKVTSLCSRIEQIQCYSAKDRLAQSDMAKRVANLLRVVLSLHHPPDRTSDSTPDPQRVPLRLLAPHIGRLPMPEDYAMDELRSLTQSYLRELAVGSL
Sequence of cysteines in MDA-MB-231 and Ramos cells (Homo sapiens, UniProt P68366) (P68366 whole entry): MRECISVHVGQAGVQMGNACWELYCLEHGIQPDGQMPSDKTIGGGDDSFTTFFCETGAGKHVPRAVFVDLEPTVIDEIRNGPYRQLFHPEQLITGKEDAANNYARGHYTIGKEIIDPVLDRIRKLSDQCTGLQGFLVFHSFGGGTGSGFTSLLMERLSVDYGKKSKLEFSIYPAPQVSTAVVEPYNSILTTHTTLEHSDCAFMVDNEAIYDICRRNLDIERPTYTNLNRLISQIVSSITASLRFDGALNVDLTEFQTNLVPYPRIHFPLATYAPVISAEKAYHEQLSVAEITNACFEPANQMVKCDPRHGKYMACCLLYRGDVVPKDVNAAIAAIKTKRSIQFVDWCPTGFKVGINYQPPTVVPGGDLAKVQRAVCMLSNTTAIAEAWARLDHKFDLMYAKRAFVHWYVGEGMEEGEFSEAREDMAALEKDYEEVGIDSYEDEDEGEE
Sequence of cysteines in MDA-MB-231 and Ramos cells (Homo sapiens, UniProt Q14790) (Q14790 217-479): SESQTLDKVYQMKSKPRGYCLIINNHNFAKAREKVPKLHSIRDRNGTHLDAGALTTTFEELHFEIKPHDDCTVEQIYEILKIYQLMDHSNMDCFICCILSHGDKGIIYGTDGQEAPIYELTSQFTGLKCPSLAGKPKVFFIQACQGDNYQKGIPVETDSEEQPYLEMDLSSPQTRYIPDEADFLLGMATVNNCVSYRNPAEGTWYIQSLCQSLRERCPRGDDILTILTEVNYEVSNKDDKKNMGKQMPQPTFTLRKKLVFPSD
Sequence of cysteines in MDA-MB-231 and Ramos cells (Homo sapiens, UniProt Q14137) (Q14137 whole entry): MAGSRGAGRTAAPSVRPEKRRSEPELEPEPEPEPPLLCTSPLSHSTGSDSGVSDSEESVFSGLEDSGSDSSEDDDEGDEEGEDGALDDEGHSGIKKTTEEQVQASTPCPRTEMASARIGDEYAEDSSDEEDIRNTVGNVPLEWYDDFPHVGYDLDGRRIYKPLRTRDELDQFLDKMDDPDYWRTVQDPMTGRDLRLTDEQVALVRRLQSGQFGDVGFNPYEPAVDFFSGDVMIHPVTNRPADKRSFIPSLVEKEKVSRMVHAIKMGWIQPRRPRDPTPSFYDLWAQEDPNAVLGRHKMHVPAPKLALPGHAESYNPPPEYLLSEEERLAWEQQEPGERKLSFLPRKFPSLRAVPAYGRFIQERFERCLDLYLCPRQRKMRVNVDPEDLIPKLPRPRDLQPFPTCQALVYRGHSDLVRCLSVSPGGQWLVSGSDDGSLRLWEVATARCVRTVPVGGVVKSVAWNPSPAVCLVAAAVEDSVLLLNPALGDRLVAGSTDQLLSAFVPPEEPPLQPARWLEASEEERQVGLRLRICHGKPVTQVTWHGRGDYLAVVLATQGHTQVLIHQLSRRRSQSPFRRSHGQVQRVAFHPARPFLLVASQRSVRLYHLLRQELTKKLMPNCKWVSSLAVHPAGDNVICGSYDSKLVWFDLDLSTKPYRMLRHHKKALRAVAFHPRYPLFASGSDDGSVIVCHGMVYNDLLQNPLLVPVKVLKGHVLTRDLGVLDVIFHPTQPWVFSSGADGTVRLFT
Sequence of cysteines in MDA-MB-231 and Ramos cells (Homo sapiens, UniProt Q9UJW0) (Q9UJW0 whole entry): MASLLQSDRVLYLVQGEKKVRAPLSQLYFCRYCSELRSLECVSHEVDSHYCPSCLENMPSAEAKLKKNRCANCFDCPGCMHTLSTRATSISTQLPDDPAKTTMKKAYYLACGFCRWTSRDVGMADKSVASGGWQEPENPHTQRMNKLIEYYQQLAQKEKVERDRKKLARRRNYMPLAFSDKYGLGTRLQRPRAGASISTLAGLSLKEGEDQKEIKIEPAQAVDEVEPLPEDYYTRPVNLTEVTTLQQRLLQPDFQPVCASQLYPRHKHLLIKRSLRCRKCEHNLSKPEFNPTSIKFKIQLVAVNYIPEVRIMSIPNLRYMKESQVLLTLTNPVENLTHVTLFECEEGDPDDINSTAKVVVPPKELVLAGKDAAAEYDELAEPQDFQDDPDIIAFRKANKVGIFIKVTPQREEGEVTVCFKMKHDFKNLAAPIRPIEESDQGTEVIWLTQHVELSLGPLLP
Sequence of cysteines in MDA-MB-231 and Ramos cells (Homo sapiens, UniProt P27707) (P27707 whole entry, the tested form may be a part): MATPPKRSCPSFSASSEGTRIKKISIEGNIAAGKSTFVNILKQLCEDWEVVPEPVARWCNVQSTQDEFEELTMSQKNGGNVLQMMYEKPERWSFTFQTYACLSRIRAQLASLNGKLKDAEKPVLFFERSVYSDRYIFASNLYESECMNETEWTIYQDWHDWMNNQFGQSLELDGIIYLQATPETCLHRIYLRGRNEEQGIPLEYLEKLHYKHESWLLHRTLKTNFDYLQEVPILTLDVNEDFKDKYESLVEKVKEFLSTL

SMILES	isoTOP-ABPP ratio P27707_C9 [1]	isoTOP-ABPP ratio P52948_C1312 [2]	isoTOP-ABPP ratio P68366_C54 [3]	isoTOP-ABPP ratio Q14790_C360 [4]	isoTOP-ABPP ratio Q96EB1_C218 [5]	isoTOP-ABPP ratio Q9Y5Y2_C72 [6]	isoTOP-ABPP reactivity ratio, O00541_C272 ([7]; in-vitro_ramos_231)	isoTOP-ABPP reactivity ratio, O00541_C272 ([7]; in-vitro_ramos)	isoTOP-ABPP ratio O75439_C265 [8]	isoTOP-ABPP ratio P24468_C326 [9]	isoTOP-ABPP ratio Q14137_C404 [10]	isoTOP-ABPP ratio Q9NPH0_C267 [11]	isoTOP-ABPP ratio Q9UJW0_C258 [12]	isoTOP-ABPP ratio (reactivity profile), O00541_C272 [13]
C=CC(=O)Nc1cc(F)c(N2CCN(C(=O)OC(C)(C)C)CC2)c(F)c1 [compound 38]	1.8	1.3	2.0	1.0	1.3	1.7	1.0	–	–	–	–	–	–	–
C=CC(=O)N1CCC(c2noc3ccc(F)cc23)CC1 [compound 37]	–	–	–	–	–	–	–	1.0	–	–	–	–	–	–
CC(C)CCOCCNC(=O)CCl [compound 27]	–	1.3	0.3	0.4	0.6	–	–	–	1.6	1.2	0.6	1.3	0.8	1.1
O=C(CCl)Nc1ccccc1C1CCCCCC1 [compound 35]	–	–	–	–	–	–	0.8	1.2	–	–	–	–	–	–
